# Data as given in patent publication US11214594B2, “Antimicrobial peptide having synergistic antibacterial effect with antibiotics on multidrug resistant bacteria, and use thereof” (priority 2016, dated 2022).
# Read-outs that look alike come from different tables or passages of the source. Where a SMILES comes first, the peptide text is derived from it.
# How the values were obtained:
# [1] = system: E. coli; assay: microbe, parasite or virus in culture; type: cell-based, Escherichia coli; settings: 16 h
# In short: (§1)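 Broth microdilution in MH medium: bacterial strains diluted to 2×10^6 CFU were mixed with equal volumes of peptide serially diluted twofold in MH medium.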
# [2] = system: MDREC 1229; assay: microbe, parasite or virus in culture; type: cell-based, Escherichia coli
# In short: as §1
# [3] = system: P. aeruginosa; assay: microbe, parasite or virus in culture; type: cell-based, Pseudomonas aeruginosa
# In short: as §1
# [4] = system: MDRST 8009; type: cell-based, Salmonella typhimurium; settings: agent alone
# In short: as §1
# [5] = system: B. subtilis; assay: microbe, parasite or virus in culture; type: cell-based, Bacillus subtilis
# In short: as §1
# [6] = system: S. epidermidis; assay: microbe, parasite or virus in culture; type: cell-based, Staphylococcus epidermidis
# In short: as §1
# [7] = system: E. coli; assay: MIC of antibiotic during combined treatment with antimicrobial peptide; type: cell-based, Escherichia coli; settings: for Antibiotic MIC, Erythromycin / Antibiotic MIC, Linezolid / Antibiotic MIC, Vancomycin: E. coli
# In short: (§2)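 MIC values for mixed peptide plus antibiotic solutions were measured in MH medium.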
# [8] = system: MDREC 1229; assay: as above; type: cell-based, Escherichia coli
# In short: (§3)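 Antibiotic MIC came from antibiotic dilutions added to bacteria (2×10^6 CFU/ml, MH medium) already combined with peptide serially diluted 2:1 from its own MIC. Swapping the roles of the two agents gave the peptide MIC.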
# [9] = system: A. baumannii; assay: as above; type: cell-based, Acinetobacter baumannii; settings: for Antibiotic MIC, Erythromycin / Antibiotic MIC, Linezolid / Antibiotic MIC, Vancomycin: A. baumannii
# In short: as §2
# [10] = system: E. coli; type: cell-based, Escherichia coli; settings: E. coli
# In short: as §3
# [11] = system: MDREC 1229; type: cell-based, Escherichia coli
# In short: as §3
# [12] = system: A. baumannii; assay: MIC of antimicrobial peptide during combined treatment with antibiotic; type: cell-based, Acinetobacter baumannii
# In short: as §3
# [13] = system: MDRAB 12035; assay: as above; type: cell-based, Acinetobacter baumannii
# In short: as §3
# [14] = peptide treatment concentration 1 μg/ml
# [15] = peptide treatment concentration 2 μg/ml
# [16] = peptide treatment concentration 4 μg/ml
# [17] = peptide treatment concentration 6 μg/ml
# [18] = peptide treatment concentration 8 μg/ml
# [19] = peptide treatment concentration 16 μg/ml
# [20] = peptide treatment concentration 32 μg/ml
# [21] = peptide treatment concentration 64 μg/ml
# [22] = combined with peptide at 1 μg/ml
# [23] = combined with peptide at 2 μg/ml
# [24] = combined with peptide at 4 μg/ml
# [25] = combined with peptide at 6 μg/ml
# [26] = combined with peptide at 8 μg/ml
# [27] = combined with peptide at 16 μg/ml
# [28] = combined with peptide at 32 μg/ml
# [29] = combined with peptide at 64 μg/ml
# [30] = with Erythromycin […] (Conc./MIC 1)
# [31] = erythromycin 4 μg/ml (Conc./MIC 1/8)
# [32] = erythromycin 8 μg/ml (Conc./MIC 1/4)
# [33] = erythromycin 16 μg/ml (Conc./MIC 1/2)
# [34] = erythromycin 32 μg/ml (Conc./MIC 1)
# [35] = vancomycin 512 μg/ml (Conc./MIC 1/2)
# [36] = vancomycin 1024 μg/ml (Conc./MIC 1)
smiles,measurement,setting,value
"CC[C@H](C)[C@H](NC(=O)[C@H](CCCCN)NC(=O)[C@H](Cc1c[nH]c2ccccc12)NC(=O)[C@@H](N)CCCNC(=N)N)C(=O)N[C@@H](Cc1ccccc1)C(=O)N[C@@H](CCCCN)C(=O)N[C@@H](CCCCN)C(=O)N[C@H](C(=O)N1CCC[C@H]1C(=O)N[C@@H](CCCCN)C(=O)N[C@@H](Cc1ccccc1)C(=O)N[C@@H](CC(C)C)C(=O)N[C@@H](Cc1c[nH]cn1)C(=O)N[C@@H](CO)C(=O)N[C@@H](CC(C)C)C(=O)N[C@@H](CCCCN)C(=O)N[C@@H](CCCCN)C(=O)N[C@@H](Cc1ccccc1)C(N)=O)[C@@H](C)CC [PapMA-6, RWK IFK KIP KFL HSL KKF-NH2] (H-RWKIFKKIPKFLHSLKKF-NH2; N-terminus assumed)",Minimal inhibitory concentration MIC,[1],64 µg/mL
same,Minimal inhibitory concentration MIC,[2],64 µg/mL
same,Minimal inhibitory concentration MIC,[3],16 µg/mL
same,Antibacterial activity (in words),[3]; P. aeruginosa and S. typhimurium,significantly increased
same,Minimal inhibitory concentration MIC,[4],64 µg/mL
same,Minimal inhibitory concentration MIC,[5],>128 µg/mL
same,Minimal inhibitory concentration MIC,[6],>128 µg/mL
same,Synergistic effect of antibacterial activity with existing antibiotics compared with PapMA-1,[7]; E. coli and MDREC1229,higher level than the PapMA-1 peptide
same,"Antibiotic MIC, Erythromycin",[7]; erythromycin combined with peptide at 1 μg/ml,64 µg/mL
same,"Antibiotic MIC, Erythromycin",[7]; erythromycin combined with peptide at 2 μg/ml,64 µg/mL
same,"Antibiotic MIC, Erythromycin",[7]; erythromycin combined with peptide at 4 μg/ml,8 µg/mL
same,"Antibiotic MIC, Erythromycin",[7]; erythromycin combined with peptide at 6 μg/ml,4 µg/mL
same,"Antibiotic MIC, Erythromycin",[7]; erythromycin combined with peptide at 8 μg/ml,0.5 µg/mL
same,"Antibiotic MIC, Erythromycin",[7]; erythromycin combined with peptide at 16 μg/ml,0.25 µg/mL
same,"Antibiotic MIC, Erythromycin",[7]; erythromycin combined with peptide at 32 μg/ml,0.125 µg/mL
same,"Antibiotic MIC, Erythromycin",[7]; erythromycin combined with peptide at 64 μg/ml,0 µg/mL
same,"Antibiotic MIC, Linezolid",[7]; linezolid combined with peptide at 1 μg/ml,>128 µg/mL
same,"Antibiotic MIC, Linezolid",[7]; linezolid combined with peptide at 2 μg/ml,>128 µg/mL
same,"Antibiotic MIC, Linezolid",[7]; linezolid combined with peptide at 4 μg/ml,32 µg/mL
same,"Antibiotic MIC, Linezolid",[7]; linezolid combined with peptide at 6 μg/ml,8 µg/mL
same,"Antibiotic MIC, Linezolid",[7]; linezolid combined with peptide at 8 μg/ml,8 µg/mL
same,"Antibiotic MIC, Linezolid",[7]; linezolid combined with peptide at 16 μg/ml,2 µg/mL
same,"Antibiotic MIC, Linezolid",[7]; linezolid combined with peptide at 32 μg/ml,2 µg/mL
same,"Antibiotic MIC, Linezolid",[7]; linezolid combined with peptide at 64 μg/ml,0 µg/mL
same,"Antibiotic MIC, Vancomycin",[7]; vancomycin combined with peptide at 1 μg/ml,>128 µg/mL
same,"Antibiotic MIC, Vancomycin",[7]; vancomycin combined with peptide at 2 μg/ml,>128 µg/mL
same,"Antibiotic MIC, Vancomycin",[7]; vancomycin combined with peptide at 4 μg/ml,32 µg/mL
same,"Antibiotic MIC, Vancomycin",[7]; vancomycin combined with peptide at 6 μg/ml,16 µg/mL
same,"Antibiotic MIC, Vancomycin",[7]; vancomycin combined with peptide at 8 μg/ml,8 µg/mL
same,"Antibiotic MIC, Vancomycin",[7]; vancomycin combined with peptide at 16 μg/ml,2 µg/mL
same,"Antibiotic MIC, Vancomycin",[7]; vancomycin combined with peptide at 32 μg/ml,1 µg/mL
same,"Antibiotic MIC, Vancomycin",[7]; vancomycin combined with peptide at 64 μg/ml,0 µg/mL
same,"Antibiotic MIC, Erythromycin",[8]; [14],64 µg/mL
same,"Antibiotic MIC, Linezolid",[8]; [14],128 µg/mL
same,"Antibiotic MIC, Vancomycin",[8]; [14],>128 µg/mL
same,"Antibiotic MIC, Erythromycin",[8]; [15],32 µg/mL
same,"Antibiotic MIC, Linezolid",[8]; [15],64 µg/mL
same,"Antibiotic MIC, Vancomycin",[8]; [15],>128 µg/mL
same,"Antibiotic MIC, Erythromycin",[8]; [16],8 µg/mL
same,"Antibiotic MIC, Linezolid",[8]; [16],32 µg/mL
same,"Antibiotic MIC, Vancomycin",[8]; [16],>128 µg/mL
same,"Antibiotic MIC, Erythromycin",[8]; [17],2 µg/mL
same,"Antibiotic MIC, Linezolid",[8]; [17],8 µg/mL
same,"Antibiotic MIC, Vancomycin",[8]; [17],64 µg/mL
same,"Antibiotic MIC, Erythromycin",[8]; [18],1 µg/mL
same,"Antibiotic MIC, Linezolid",[8]; [18],8 µg/mL
same,"Antibiotic MIC, Vancomycin",[8]; [18],16 µg/mL
same,"Antibiotic MIC, Erythromycin",[8]; [19],0.25 µg/mL
same,"Antibiotic MIC, Linezolid",[8]; [19],4 µg/mL
same,"Antibiotic MIC, Vancomycin",[8]; [19],4 µg/mL
same,"Antibiotic MIC, Erythromycin",[8]; [20],0.125 µg/mL
same,"Antibiotic MIC, Linezolid",[8]; [20],1 µg/mL
same,"Antibiotic MIC, Vancomycin",[8]; [20],2 µg/mL
same,"Antibiotic MIC, Erythromycin",[8]; [21],0 µg/mL
same,"Antibiotic MIC, Linezolid",[8]; [21],0 µg/mL
same,"Antibiotic MIC, Vancomycin",[8]; [21],0 µg/mL
same,Synergistic effect of antibacterial activity with existing antibiotics compared with PapMA-1,[9]; A. baumannii and MDRAB 12035,higher level than the PapMA-1 peptide
same,"Antibiotic MIC, Erythromycin",[9]; [22],16 µg/mL
same,"Antibiotic MIC, Linezolid",[9]; [22],128 µg/mL
same,"Antibiotic MIC, Vancomycin",[9]; [22],>128 µg/mL
same,"Antibiotic MIC, Erythromycin",[9]; [23],8 µg/mL
same,"Antibiotic MIC, Linezolid",[9]; [23],64 µg/mL
same,"Antibiotic MIC, Vancomycin",[9]; [23],128 µg/mL
same,"Antibiotic MIC, Erythromycin",[9]; [24],4 µg/mL
same,"Antibiotic MIC, Linezolid",[9]; [24],8 µg/mL
same,"Antibiotic MIC, Vancomycin",[9]; [24],16 µg/mL
same,"Antibiotic MIC, Erythromycin",[9]; [25],2 µg/mL
same,"Antibiotic MIC, Linezolid",[9]; [25],4 µg/mL
same,"Antibiotic MIC, Vancomycin",[9]; [25],8 µg/mL
same,"Antibiotic MIC, Erythromycin",[9]; [26],0.125 µg/mL
same,"Antibiotic MIC, Linezolid",[9]; [26],2 µg/mL
same,"Antibiotic MIC, Vancomycin",[9]; [26],4 µg/mL
same,"Antibiotic MIC, Erythromycin",[9]; [27],0.0625 µg/mL
same,"Antibiotic MIC, Linezolid",[9]; [27],0.5 µg/mL
same,"Antibiotic MIC, Vancomycin",[9]; [27],2 µg/mL
same,"Antibiotic MIC, Erythromycin",[9]; [28],0 µg/mL
same,"Antibiotic MIC, Linezolid",[9]; [28],0 µg/mL
same,"Antibiotic MIC, Vancomycin",[9]; [28],0 µg/mL
same,"Antibiotic MIC, Erythromycin",[9]; [29],0 µg/mL
same,"Antibiotic MIC, Linezolid",[9]; [29],0 µg/mL
same,"Antibiotic MIC, Vancomycin",[9]; [29],0 µg/mL
same,Peptide MIC,[10]; [30],0 µg/mL
same,Peptide MIC,[10]; with Linezolid […] (Conc./MIC 1),0 µg/mL
same,Peptide MIC,[10]; with Vancomycin 1024 μg/ml (Conc./MIC 1),0 µg/mL
same,Peptide MIC,[11]; [30],0 µg/mL
same,Peptide MIC,[11]; with Linezolid 512 μg/ml (Conc./MIC 1),0 µg/mL
same,Peptide MIC during treatment with antibiotic,[12]; [31],4 µg/mL
same,Peptide MIC during treatment with antibiotic,[12]; [32],2 µg/mL
same,Peptide MIC during treatment with antibiotic,[12]; [33],1 µg/mL
same,Peptide MIC during treatment with antibiotic,[12]; [34],0 µg/mL
same,Peptide MIC during treatment with antibiotic,[12]; linezolid 32 μg/ml (Conc./MIC 1/8),4 µg/mL
same,Peptide MIC during treatment with antibiotic,[12]; linezolid 64 μg/ml (Conc./MIC 1/4),2 µg/mL
same,Peptide MIC during treatment with antibiotic,[12]; linezolid […] (Conc./MIC 1),0 µg/mL
same,Peptide MIC during treatment with antibiotic,[12]; linezolid […] (Conc./MIC 1/2),1 µg/mL
same,Peptide MIC during treatment with antibiotic,[12]; [35],0.25 µg/mL
same,Peptide MIC during treatment with antibiotic,[12]; [36],0 µg/mL
same,Peptide MIC during treatment with antibiotic,[12]; vancomycin […] (Conc./MIC 1/4),0.5 µg/mL
same,Peptide MIC during treatment with antibiotic,[12]; vancomycin […] (Conc./MIC 1/8),2 µg/mL
same,Peptide MIC during treatment with erythromycin,[13]; [31],4 µg/mL
same,Peptide MIC during treatment with erythromycin,[13]; [32],2 µg/mL
same,Peptide MIC during treatment with erythromycin,[13]; [33],1 µg/mL
same,Peptide MIC during treatment with erythromycin,[13]; [34],0 µg/mL
same,Peptide MIC during treatment with linezolid,[13]; linezolid 64 μg/ml (Conc./MIC 1/8),2 µg/mL
same,Peptide MIC during treatment with linezolid,[13]; linezolid 512 μg/ml (Conc./MIC 1),0 µg/mL
same,Peptide MIC during treatment with linezolid,[13]; linezolid […] (Conc./MIC 1/2),1 µg/mL
same,Peptide MIC during treatment with linezolid,[13]; linezolid […] (Conc./MIC 1/4),1 µg/mL
same,Peptide MIC during treatment with vancomycin,[13]; [35],1 µg/mL
same,Peptide MIC during treatment with vancomycin,[13]; [36],0.25 µg/mL
same,Peptide MIC during treatment with vancomycin,[13]; vancomycin […] (Conc./MIC 1/4),2 µg/mL
same,Peptide MIC during treatment with vancomycin,[13]; vancomycin […] (Conc./MIC 1/8),2 µg/mL
